Test results reported in patent US20230111310A1, “CARBOXYLIC ACID DERIVATIVE-SUBSTITUTED IMINO ARYL COMPOUND, PREPARATION METHOD THEREFOR, HERBICIDAL COMPOSITION AND USE THEREOF” (Qingdao Kingagroot Chemical Compound Co., Ltd., priority 2020, published 2023).

system: Setaria viridis; experiment: Weeding effect in post-emergence stage; type: in vivo; conditions: Dose 15 g/ha; level of fresh weight growth control rate
Source text: (§1) The activity level criteria for plant damage (i.e., growth control rate) are as follows:
(§2) Monocotyledonous and dicotyledonous weed seeds (Descurainia sophia, Capsella bursa-pastoris, Abutilon theophrasti, Galium aparine, Stellaria media, Lithospermum arvense, rorippa indica, Alopecurus aequalis, Alopecurus japonicus, Eleusine indica, Beckmannia syzigachne, Sclerochloa dura, Conyza Canadensis, Phleum paniculatum, Veronica didyma Tenore, Bromus japonicus, Aegilops tauschii, Phalaris arundinacea, Amaranthus retroflexus, Chenopodiaceae, Commelina communis, Sonchus arvensis, Convolvulus arvensis, Cirsium setosum, Bidens tripartita L., Solanum nigrum, Acalypha australis, Digitaria sanguinalis, Echinochloa crusgalli, Setaria viridis, Setaria glauca, Leptochloa chinensis, Monochoria vaginalis, Sagittaria trifolia, Scirpus juncoides, Cyperus rotundus, Cyperus iria, Cyperus difformis, Fimbristylis, Portulaca oleracea, Xanthium sibiricum, Pharbitis nil, etc.) and major crop seeds (wheat, corn, rice, soybean, cotton, oilseed rape, millet, sorghum, potato, sesame, ricinus, etc.) were placed in plastic pots filled with soil, then covered with 0.5-2 cm of soil, allowed to grow in a good greenhouse environment. After 2 weeks of sowing, the test plants were treated in the 2-3 leaf stage. The tested compounds of the present invention were respectively dissolved in acetone, then added with Tween 80 and 1.5 liter/ha of emulsifiable concentrate of methyl oleate as synergist, diluted with a certain amount of water to obtain a solution with a certain concentration, and sprayed with a spray tower onto the plants. After the application, the plants were cultured for 3 weeks in the greenhouse, and then the experimental results of the weeding were counted. […]

| Structure (SMILES) | Weeding effect in post-emergence stage, Setaria viridis |
| --- | --- |
| CCOC(=O)C(C)O/N=C/c1cc(-n2c(=O)cc(C(F)(F)F)n(C)c2=O)c(F)cc1Cl (racemic) [Compound 196] | 5 (Level 5: growth control rate is above 85%) |
| CCCOC(=O)C(C)O/N=C/c1cc(-n2c(=O)cc(C(F)(F)F)n(C)c2=O)c(F)cc1Cl (racemic) [Compound 198] | 5 (Level 5: growth control rate is above 85%) |
| CC(C)OC(=O)C(C)O/N=C/c1cc(-n2c(=O)cc(C(F)(F)F)n(C)c2=O)c(F)cc1Cl (racemic) [Compound 199] | 5 (Level 5: growth control rate is above 85%) |
| CCCCOC(=O)C(C)O/N=C/c1cc(-n2c(=O)cc(C(F)(F)F)n(C)c2=O)c(F)cc1Cl (racemic) [Compound 200] | 5 (Level 5: growth control rate is above 85%) |
| CC(C)COC(=O)C(C)O/N=C/c1cc(-n2c(=O)cc(C(F)(F)F)n(C)c2=O)c(F)cc1Cl (racemic) [Compound 201] | 5 (Level 5: growth control rate is above 85%) |
| CC(O/N=C/c1cc(-n2c(=O)cc(C(F)(F)F)n(C)c2=O)c(F)cc1Cl)C(=O)OC(C)(C)C (racemic) [Compound 202] | 5 (Level 5: growth control rate is above 85%) |

system: Alopecurus japonicus; experiment: Weeding effect in post-emergence stage; type: in vivo; conditions: Dose 15 g/ha; level of fresh weight growth control rate
Source text: as §1, §2

| Structure (SMILES) | Weeding effect in post-emergence stage, Alopecurus japonicus |
| --- | --- |
| CCOC(=O)C(C)O/N=C/c1cc(-n2c(=O)cc(C(F)(F)F)n(C)c2=O)c(F)cc1Cl (racemic) [Compound 196] | 5 (Level 5: growth control rate is above 85%) |
| CCCOC(=O)C(C)O/N=C/c1cc(-n2c(=O)cc(C(F)(F)F)n(C)c2=O)c(F)cc1Cl (racemic) [Compound 198] | 5 (Level 5: growth control rate is above 85%) |
| CC(C)OC(=O)C(C)O/N=C/c1cc(-n2c(=O)cc(C(F)(F)F)n(C)c2=O)c(F)cc1Cl (racemic) [Compound 199] | 5 (Level 5: growth control rate is above 85%) |
| CCCCOC(=O)C(C)O/N=C/c1cc(-n2c(=O)cc(C(F)(F)F)n(C)c2=O)c(F)cc1Cl (racemic) [Compound 200] | 5 (Level 5: growth control rate is above 85%) |
| CC(C)COC(=O)C(C)O/N=C/c1cc(-n2c(=O)cc(C(F)(F)F)n(C)c2=O)c(F)cc1Cl (racemic) [Compound 201] | 5 (Level 5: growth control rate is above 85%) |
| CC(O/N=C/c1cc(-n2c(=O)cc(C(F)(F)F)n(C)c2=O)c(F)cc1Cl)C(=O)OC(C)(C)C (racemic) [Compound 202] | 5 (Level 5: growth control rate is above 85%) |

system: Digitaria sanguinalis; experiment: Weeding effect in post-emergence stage; type: in vivo; conditions: Dose 15 g/ha; level of fresh weight growth control rate
Source text: as §1, §2

| Structure (SMILES) | Weeding effect in post-emergence stage, Digitaria sanguinalis |
| --- | --- |
| CCOC(=O)C(C)O/N=C/c1cc(-n2c(=O)cc(C(F)(F)F)n(C)c2=O)c(F)cc1Cl (racemic) [Compound 196] | 5 (Level 5: growth control rate is above 85%) |
| CCCOC(=O)C(C)O/N=C/c1cc(-n2c(=O)cc(C(F)(F)F)n(C)c2=O)c(F)cc1Cl (racemic) [Compound 198] | 5 (Level 5: growth control rate is above 85%) |
| CC(C)OC(=O)C(C)O/N=C/c1cc(-n2c(=O)cc(C(F)(F)F)n(C)c2=O)c(F)cc1Cl (racemic) [Compound 199] | 5 (Level 5: growth control rate is above 85%) |
| CCCCOC(=O)C(C)O/N=C/c1cc(-n2c(=O)cc(C(F)(F)F)n(C)c2=O)c(F)cc1Cl (racemic) [Compound 200] | 5 (Level 5: growth control rate is above 85%) |
| CC(C)COC(=O)C(C)O/N=C/c1cc(-n2c(=O)cc(C(F)(F)F)n(C)c2=O)c(F)cc1Cl (racemic) [Compound 201] | 5 (Level 5: growth control rate is above 85%) |
| CC(O/N=C/c1cc(-n2c(=O)cc(C(F)(F)F)n(C)c2=O)c(F)cc1Cl)C(=O)OC(C)(C)C (racemic) [Compound 202] | 5 (Level 5: growth control rate is above 85%) |

system: Abutilon theophrasti; experiment: Weeding effect in post-emergence stage; type: in vivo; conditions: Dose 15 g/ha; level of fresh weight growth control rate
Source text: as §1, §2

| Structure (SMILES) | Weeding effect in post-emergence stage, Abutilon theophrasti |
| --- | --- |
| CCOC(=O)C(C)O/N=C/c1cc(-n2c(=O)cc(C(F)(F)F)n(C)c2=O)c(F)cc1Cl (racemic) [Compound 196] | 5 (Level 5: growth control rate is above 85%) |
| CCCOC(=O)C(C)O/N=C/c1cc(-n2c(=O)cc(C(F)(F)F)n(C)c2=O)c(F)cc1Cl (racemic) [Compound 198] | 5 (Level 5: growth control rate is above 85%) |
| CC(C)OC(=O)C(C)O/N=C/c1cc(-n2c(=O)cc(C(F)(F)F)n(C)c2=O)c(F)cc1Cl (racemic) [Compound 199] | 5 (Level 5: growth control rate is above 85%) |
| CCCCOC(=O)C(C)O/N=C/c1cc(-n2c(=O)cc(C(F)(F)F)n(C)c2=O)c(F)cc1Cl (racemic) [Compound 200] | 5 (Level 5: growth control rate is above 85%) |
| CC(C)COC(=O)C(C)O/N=C/c1cc(-n2c(=O)cc(C(F)(F)F)n(C)c2=O)c(F)cc1Cl (racemic) [Compound 201] | 5 (Level 5: growth control rate is above 85%) |
| CC(O/N=C/c1cc(-n2c(=O)cc(C(F)(F)F)n(C)c2=O)c(F)cc1Cl)C(=O)OC(C)(C)C (racemic) [Compound 202] | 5 (Level 5: growth control rate is above 85%) |

system: Eleusine indica; experiment: Weeding effect in post-emergence stage; type: in vivo; conditions: Dose 15 g/ha; level of fresh weight growth control rate
Source text: as §1, §2

| Structure (SMILES) | Weeding effect in post-emergence stage, Eleusine indica |
| --- | --- |
| CCOC(=O)C(C)O/N=C/c1cc(-n2c(=O)cc(C(F)(F)F)n(C)c2=O)c(F)cc1Cl (racemic) [Compound 196] | 5 (Level 5: growth control rate is above 85%) |
| CCCOC(=O)C(C)O/N=C/c1cc(-n2c(=O)cc(C(F)(F)F)n(C)c2=O)c(F)cc1Cl (racemic) [Compound 198] | 5 (Level 5: growth control rate is above 85%) |
| CC(C)OC(=O)C(C)O/N=C/c1cc(-n2c(=O)cc(C(F)(F)F)n(C)c2=O)c(F)cc1Cl (racemic) [Compound 199] | 5 (Level 5: growth control rate is above 85%) |
| CCCCOC(=O)C(C)O/N=C/c1cc(-n2c(=O)cc(C(F)(F)F)n(C)c2=O)c(F)cc1Cl (racemic) [Compound 200] | 5 (Level 5: growth control rate is above 85%) |
| CC(C)COC(=O)C(C)O/N=C/c1cc(-n2c(=O)cc(C(F)(F)F)n(C)c2=O)c(F)cc1Cl (racemic) [Compound 201] | 5 (Level 5: growth control rate is above 85%) |
| CC(O/N=C/c1cc(-n2c(=O)cc(C(F)(F)F)n(C)c2=O)c(F)cc1Cl)C(=O)OC(C)(C)C (racemic) [Compound 202] | 5 (Level 5: growth control rate is above 85%) |

system: Echinochloa crusgalli; experiment: Weeding effect in post-emergence stage; type: in vivo; conditions: Dose 15 g/ha; level of fresh weight growth control rate
Source text: as §1
Monocotyledonous and dicotyledonous weed seeds (Descurainia sophia, Capsella bursa-pastoris, Abutilon theophrasti, Galium aparine, Stellaria media, Lithospermum arvense, rorippa indica, Alopecurus aequalis, Alopecurus japonicus, Eleusine indica, Beckmannia syzigachne, Sclerochloa dura, Conyza Canadensis, Phleum paniculatum, Veronica didyma Tenore, Bromus japonicus, Aegilops tauschii, Phalaris arundinacea, Amaranthus retroflexus, Chenopodiaceae, Commelina communis, Sonchus arvensis, Convolvulus arvensis, Cirsium setosum, Bidens tripartita L., Solanum nigrum, Acalypha australis, Digitaria sanguinalis, Echinochloa crusgalli, Setaria viridis, Setaria glauca, Leptochloa chinensis, Monochoria vaginalis, Sagittaria trifolia, Scirpus juncoides, Cyperus rotundus, Cyperus iria, Cyperus difformis, Fimbristylis, Portulaca oleracea, Xanthium sibiricum, Pharbitis nil, etc.) and major crop seeds (wheat, corn, rice, soybean, cotton, oilseed rape, millet, sorghum, potato, sesame, ricinus, etc.) were placed in plastic pots filled with soil, then covered with 0.5-2 cm of soil, allowed to grow in a good greenhouse environment. After 2 weeks of sowing, the test plants were treated in the 2-3 leaf stage. The tested compounds of the present invention were respectively dissolved in acetone, then added with Tween 80 and 1.5 liter/ha of emulsifiable concentrate of methyl oleate as synergist, diluted with a certain amount of water to obtain a solution with a certain concentration, and sprayed with a spray tower onto the plants. After the application, the plants were cultured for 3 weeks in the greenhouse, and then the experimental results of the weeding were counted. The doses of the used compounds were 500, 250, 125, 60, 30, 15, 7.5 g/ha, and the averages were obtained by repeating for three times.

| Structure (SMILES) | Weeding effect in post-emergence stage, Echinochloa crusgalli |
| --- | --- |
| CCOC(=O)C(C)O/N=C/c1cc(-n2c(=O)cc(C(F)(F)F)n(C)c2=O)c(F)cc1Cl (racemic) [Compound 196] | 5 (Level 5: growth control rate is above 85%) |
| CCCOC(=O)C(C)O/N=C/c1cc(-n2c(=O)cc(C(F)(F)F)n(C)c2=O)c(F)cc1Cl (racemic) [Compound 198] | 5 (Level 5: growth control rate is above 85%) |
| CC(C)OC(=O)C(C)O/N=C/c1cc(-n2c(=O)cc(C(F)(F)F)n(C)c2=O)c(F)cc1Cl (racemic) [Compound 199] | 5 (Level 5: growth control rate is above 85%) |
| CCCCOC(=O)C(C)O/N=C/c1cc(-n2c(=O)cc(C(F)(F)F)n(C)c2=O)c(F)cc1Cl (racemic) [Compound 200] | 5 (Level 5: growth control rate is above 85%) |
| CC(C)COC(=O)C(C)O/N=C/c1cc(-n2c(=O)cc(C(F)(F)F)n(C)c2=O)c(F)cc1Cl (racemic) [Compound 201] | 5 (Level 5: growth control rate is above 85%) |
| CC(O/N=C/c1cc(-n2c(=O)cc(C(F)(F)F)n(C)c2=O)c(F)cc1Cl)C(=O)OC(C)(C)C (racemic) [Compound 202] | 5 (Level 5: growth control rate is above 85%) |
